Target: human GnRH receptor (Homo sapiens (Human), UniProt P30968)
Test: 125I-leuprorelin binding inhibition, CHO cell membrane fraction containing human GnRH receptor
Settings: human GnRH receptor expressed in CHO cell membrane, 25° C., 60 minutes, from Hill plot
Description: To a tube containing 10 μl of a 3×10^−4 M aqueous solution of leuprorelin and 10 μl of 0.01 mg/ml lactoperoxidase was added 10 μl (37 MBq) of a solution of Na^125I. After stirring, 10 μl of 0.001% H2O2 was added, and a reaction was carried out at room temperature for 20 minutes. By adding 700 μl of a 0.05% TFA solution, the reaction was stopped, followed by purification by reversed-phase HPLC. The HPLC conditions used are shown below. ^125I-leuprorelin was eluted at a retention time of 26 to 27 minutes.
Human GnRH receptor-expressing CHO cells (10^9 cells) were suspended in phosphate-buffered saline supplemented with 5 mM EDTA (PBS-EDTA) and centrifuged at 100×g for 5 minutes. […]
The monkey and human membrane fractions prepared in the above (2) and (3) were diluted with the assay buffer to yield a 200 µg/ml dilution, each of which was then dispensed at 188 μl per tube. […] To determine maximum binding quantity, a reaction mixture containing 2 μl of 60% DMSO and 10 μl of 38 nM ^125I-leuprorelin was prepared. […]
Where the membrane fraction of the CHO with monkey and human GnRH receptors expressed was used, the reaction was carried out at 25° C. for 60 minutes. […] After this filtration, the radioactivity of ^125I-leuprorelin remaining on the filter paper was measured with a γ-counter. […]

Sequence of human GnRH receptor (P30968 whole entry): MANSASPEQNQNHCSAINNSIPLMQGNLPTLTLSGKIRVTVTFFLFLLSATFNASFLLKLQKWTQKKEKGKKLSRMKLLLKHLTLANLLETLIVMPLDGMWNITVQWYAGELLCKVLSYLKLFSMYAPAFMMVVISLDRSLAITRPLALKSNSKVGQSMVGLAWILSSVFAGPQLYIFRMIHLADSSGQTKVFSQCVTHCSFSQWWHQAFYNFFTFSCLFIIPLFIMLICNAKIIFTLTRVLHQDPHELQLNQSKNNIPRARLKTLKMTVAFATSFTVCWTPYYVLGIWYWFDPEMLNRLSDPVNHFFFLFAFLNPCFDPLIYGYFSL

| SMILES | IC50 |
| --- | --- |
| COCCN(C)Cc1c(-c2ccc(NC(=O)NOC)cc2)sc2c1c(=O)n(-c1ccccn1)c(=O)n2Cc1c(F)cccc1F [Ex. Compd. No. 40, N-(4-(1-(2,6-difluorobenzyl)-5-(((2-methoxyethyl)(methyl)amino)methyl)-2,4-dioxo-3-(2-pyridinyl)-1,2,3,4-tetrahydrothieno[2,3-d]pyrimidin-6-yl)phenyl)-N′-methoxyurea] | 0.0002 µM |
| CCOCCN(C)Cc1c(-c2ccc(NC(=O)NOC)cc2)sc2c1c(=O)n(-c1ccccn1)c(=O)n2Cc1c(F)cccc1F [Ex. Compd. No. 41, N-(4-(1-(2,6-difluorobenzyl)-5-(((2-ethoxyethyl)(methyl)amino)methyl)-2,4-dioxo-3-(2-pyridinyl)-1,2,3,4-tetrahydrothieno[2,3-d]pyrimidin-6-yl)phenyl)-N′-methoxyurea] | 0.0001 µM |

System: not given
Test: not given
Settings: not given

| SMILES | melting point |
| --- | --- |
| CONC(=O)Nc1ccc(-c2sc3c(c2CN[C@H](C)c2ccccc2)c(=O)n(-c2ccccc2)c(=O)n3Cc2c(F)cccc2F)cc1 (hydrate or solvate) [Reference Example 28, N-(4-(5-(((1R)-1-phenylethylamino)methyl)-1-(2,6-difluorobenzyl)-1,2,3,4-tetrahydro-2,4-dioxo-3-phenylthieno[2,3-d]pyrimidin-6-yl)phenyl)-N′-methoxyurea] | 180 to 182 °C |
| CONC(=O)Nc1ccc(-c2sc3c(c2CN[C@@H](C)c2ccccc2)c(=O)n(-c2ccccc2)c(=O)n3Cc2c(F)cccc2F)cc1 [Reference Example 29, N-(4-(5-(((1S)-1-phenylethylamino)methyl)-1-(2,6-difluorobenzyl)-1,2,3,4-tetrahydro-2,4-dioxo-3-phenylthieno[2,3-d]pyrimidin-6-yl)phenyl)-N′-methoxyurea] | 182 to 185 °C |
| COCC(c1ccccc1)N(C)Cc1c(-c2ccc(NC(=O)NOC)cc2)sc2c1c(=O)n(-c1ccccc1)c(=O)n2Cc1c(F)cccc1F (centres unmarked) [Reference Example 32, N-(4-(1-(2,6-difluorobenzyl)-5-((2-methoxy-1-phenylethyl(methyl)amino)methyl)-1,2,3,4-tetrahydro-2,4-dioxo-3-phenylthieno[2,3-d]pyrimidin-6-yl)phenyl)-N′-methoxyurea] | 169 to 172 °C |
| COCC(C)N(C)Cc1c(-c2ccc(NC(=O)NOC)cc2)sc2c1c(=O)n(-c1ccccc1)c(=O)n2Cc1c(F)cccc1F (centres unmarked) [Reference Example 34, N-(4-(1-(2,6-difluorobenzyl)-5-(((2-methoxy-1-methylethyl)methylamino)methyl)-1,2,3,4-tetrahydro-2,4-dioxo-3-phenylthieno[2,3-d]pyrimidin-6-yl)phenyl)-N′-methoxyurea] | 154 to 155 °C |
| CONC(=O)Nc1ccc(-c2sc3c(c2CN(C)[C@H](C)c2ccccc2)c(=O)n(-c2ccccn2)c(=O)n3Cc2c(F)cccc2F)cc1 [Reference Example 38, N-(4-(5-((methyl((1R)-1-phenylethyl)amino)methyl)-1-(2,6-difluorobenzyl)-1,2,3,4-tetrahydro-2,4-dioxo-3-pyridin-2-ylthieno[2,3-d]pyrimidin-6-yl)phenyl)-N′-methoxyurea] | 168 to 170 °C |
| CONC(=O)Nc1ccc(-c2sc3c(c2CN(C)[C@H](C)c2ccccc2)c(=O)n(-c2ccc(F)cn2)c(=O)n3Cc2c(F)cccc2F)cc1 [Reference Example 39, N-(4-(5-((methyl((1R)-1-phenylethyl)amino)methyl)-1-(2,6-difluorobenzyl)-1,2,3,4-tetrahydro-2,4-dioxo-3-(5-fluoropyridin-2-yl)thieno[2,3-d]pyrimidin-6-yl)phenyl)-N′-methoxyurea] | 128 to 130 °C |
